pEC50, pKd: −log10 of the molar value.
How the values were obtained:
Toll-like receptor 7 [1] = target: T1, Toll-like receptor 7 (Homo sapiens, UniProt Q9NYK1); experiment: Agonist activity at TLR7 in HEK-Blue hTLR7 cells expressing NF-kappaB/AP-1 inducible SEAP assessed as increase in SEAP activity incubated for 24 hrs by QUANTI-Blue assay; format: cell-based
T1 sequence (Q9NYK1 whole entry): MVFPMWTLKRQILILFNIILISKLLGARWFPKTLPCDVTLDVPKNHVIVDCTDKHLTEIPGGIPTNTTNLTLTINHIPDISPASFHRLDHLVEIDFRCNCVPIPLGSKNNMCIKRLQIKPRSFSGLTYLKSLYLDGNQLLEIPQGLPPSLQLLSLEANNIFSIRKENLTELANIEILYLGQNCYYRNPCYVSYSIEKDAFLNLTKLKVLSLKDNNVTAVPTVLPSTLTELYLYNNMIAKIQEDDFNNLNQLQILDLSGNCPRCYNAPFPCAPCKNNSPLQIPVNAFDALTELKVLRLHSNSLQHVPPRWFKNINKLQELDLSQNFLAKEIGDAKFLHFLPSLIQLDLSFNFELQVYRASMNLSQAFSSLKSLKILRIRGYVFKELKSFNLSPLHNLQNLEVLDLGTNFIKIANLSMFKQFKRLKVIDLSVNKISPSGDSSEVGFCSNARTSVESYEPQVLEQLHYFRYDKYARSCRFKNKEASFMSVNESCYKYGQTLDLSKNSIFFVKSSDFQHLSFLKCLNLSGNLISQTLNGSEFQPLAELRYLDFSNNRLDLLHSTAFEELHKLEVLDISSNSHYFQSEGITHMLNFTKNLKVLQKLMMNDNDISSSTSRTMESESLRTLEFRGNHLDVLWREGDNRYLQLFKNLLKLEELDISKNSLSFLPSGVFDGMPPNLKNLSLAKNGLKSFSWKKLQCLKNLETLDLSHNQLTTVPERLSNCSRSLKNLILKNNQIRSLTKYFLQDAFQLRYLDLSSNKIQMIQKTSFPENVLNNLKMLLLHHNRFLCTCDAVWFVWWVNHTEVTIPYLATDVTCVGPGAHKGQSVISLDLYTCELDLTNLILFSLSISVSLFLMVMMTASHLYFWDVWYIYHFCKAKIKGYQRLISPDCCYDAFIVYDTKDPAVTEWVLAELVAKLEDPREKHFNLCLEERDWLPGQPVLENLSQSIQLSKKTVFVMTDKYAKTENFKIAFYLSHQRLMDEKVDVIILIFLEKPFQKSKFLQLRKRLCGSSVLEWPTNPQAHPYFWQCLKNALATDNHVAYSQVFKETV

L929 = experiment: Cytotoxicity against mouse L929 cells assessed as reduction in cell viability upto 100 uM incubated for 24 hrs by CCK-8 assay; format: toxicity, cell-based; details: l929, 24 h
L02 = experiment: Cytotoxicity against human L02 cells assessed as reduction in cell viability upto 100 uM incubated for 24 hrs by CCK-8 assay; format: toxicity, cell-based; details: l02, 24 h
Toll-like receptor 7 [2] = target: T2, Toll-like receptor 7 (Mus musculus, UniProt P58681); experiment: Binding affinity to recombinant mouse TLR7 assessed as dissociation constant by SPR analysis
T2 sequence (P58681 whole entry): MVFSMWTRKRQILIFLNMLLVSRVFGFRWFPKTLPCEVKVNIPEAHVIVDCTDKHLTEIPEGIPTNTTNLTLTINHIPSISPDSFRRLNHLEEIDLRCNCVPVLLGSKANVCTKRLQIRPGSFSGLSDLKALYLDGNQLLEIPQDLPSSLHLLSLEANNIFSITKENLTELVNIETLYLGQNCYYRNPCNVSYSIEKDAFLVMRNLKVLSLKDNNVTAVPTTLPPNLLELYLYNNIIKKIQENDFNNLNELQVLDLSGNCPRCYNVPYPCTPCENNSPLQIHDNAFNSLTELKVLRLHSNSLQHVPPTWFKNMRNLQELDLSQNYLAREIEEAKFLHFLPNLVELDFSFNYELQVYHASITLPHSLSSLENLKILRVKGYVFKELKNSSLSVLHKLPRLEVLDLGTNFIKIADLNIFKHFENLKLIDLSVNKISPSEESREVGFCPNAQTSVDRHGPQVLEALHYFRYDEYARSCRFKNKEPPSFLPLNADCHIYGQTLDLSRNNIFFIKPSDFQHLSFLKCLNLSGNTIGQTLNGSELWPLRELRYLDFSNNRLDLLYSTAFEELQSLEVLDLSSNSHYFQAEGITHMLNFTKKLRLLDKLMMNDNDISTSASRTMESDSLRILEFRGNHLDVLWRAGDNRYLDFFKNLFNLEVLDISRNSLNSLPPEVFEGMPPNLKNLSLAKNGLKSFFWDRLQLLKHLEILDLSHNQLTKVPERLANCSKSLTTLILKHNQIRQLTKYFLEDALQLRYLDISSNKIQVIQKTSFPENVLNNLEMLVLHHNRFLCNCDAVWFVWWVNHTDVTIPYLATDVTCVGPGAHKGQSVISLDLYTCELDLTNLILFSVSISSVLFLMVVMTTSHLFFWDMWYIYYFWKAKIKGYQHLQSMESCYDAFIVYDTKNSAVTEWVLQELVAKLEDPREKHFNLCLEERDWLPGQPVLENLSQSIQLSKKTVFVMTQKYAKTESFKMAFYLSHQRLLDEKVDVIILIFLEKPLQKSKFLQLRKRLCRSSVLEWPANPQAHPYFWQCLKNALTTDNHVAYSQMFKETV

[3] = Toxicity in C57BL/6J mouse implanted with mouse B16-F10 cells assessed as reduction in body weight at 2.5 to 20 mg/kg, ip administered every 2 days starting from 3 days post tumor inoculation and measured on day 18; format: organism-based; details: in vivo, 360 h, dose 2.5-20 mg/kg, time 15 day
[4] = Toxicity in C57BL/6J mouse implanted with mouse B16-F10 cells assessed as splenomegaly at 25 mg/kg, ip administered every 2 days starting from 3 days post tumor inoculation and measured on day 18; format: organism-based; details: in vivo, 360 h, time 15 day
[5] = Toxicity in C57BL/6J mouse implanted with mouse B16-F10 cells assessed as increase in systemic TNF-alpha secretion in serum at 25 mg/kg, ip administered every 2 days starting from 3 days post tumor inoculation and measured on day 18 by ELISA; format: organism-based; details: in vivo, 360 h, time 15 day
[6] = Toxicity in C57BL/6J mouse implanted with mouse B16-F10 cells assessed as increase in systemic IL-6 secretion in serum at 25 mg/kg, ip administered every 2 days starting from 3 days post tumor inoculation and measured on day 18 by ELISA; format: organism-based; details: in vivo, 360 h, time 15 day
[7] = Toxicity in C57BL/6J mouse implanted with mouse B16-F10 cells assessed as pathological changes in heart at 25 mg/kg, ip administered every 2 days starting from 3 days post tumor inoculation and measured on day 18 by H and E staining based analysis; format: organism-based; details: in vivo, 360 h, time 15 day
[8] = Toxicity in C57BL/6J mouse implanted with mouse B16-F10 cells assessed as pathological changes in liver at 25 mg/kg, ip administered every 2 days starting from 3 days post tumor inoculation and measured on day 18 by H and E staining based analysis; format: organism-based; details: in vivo, 360 h, time 15 day
[9] = Toxicity in C57BL/6J mouse implanted with mouse B16-F10 cells assessed as pathological changes in kidney at 25 mg/kg, ip administered every 2 days starting from 3 days post tumor inoculation and measured on day 18 by H and E staining based analysis; format: organism-based; details: in vivo, 360 h, time 15 day
[10] = Toxicity in C57BL/6J mouse implanted with mouse B16-F10 cells assessed as physical abnormalities at 25 mg/kg, ip administered every 2 days starting from 3 days post tumor inoculation and measured on day 18; format: organism-based; details: in vivo, 360 h, time 15 day
[11] = Toxicity in C57BL/6J mouse implanted with mouse B16-F10 cells assessed as behavioral abnormalities at 25 mg/kg, ip administered every 2 days starting from 3 days post tumor inoculation and measured on day 18; format: organism-based; details: in vivo, 360 h, time 15 day
Peritoneal macrophage [12] = experiment: Induction of M1 like macrophage polarization in mouse peritoneal macrophages assessed as increase in CD86-positive cells at 10 ug/ml incubated for 24 hrs by flow cytometry analysis (reference value: 18.4%); format: functional; details: dose 10 µg/ml
Peritoneal macrophage [13] = experiment: Induction of M1 like macrophage polarization in mouse peritoneal macrophages assessed as decrease in CD206-positive cells at 10 ug/ml incubated for 24 hrs by flow cytometry analysis (reference value: 79%); format: functional; set-up: scale not given: the % may be the effect or the level left; details: dose 10 µg/ml
B16-F10 = experiment: Antitumor immunity against mouse B16-F10 cells implanted in C57BL/6J mouse assessed as increase in intracellular granzyme B level in tumor CD8-positive T cells at 25 mg/kg, ip administered every 2 days starting from 3 days post tumor inoculation and measured on day 18 by flow cytometry analysis (reference value: 14.5%); format: functional; details: time 15 day

Work on `CCCc1nc2c(N)nc3ccccc3c2n1CC1CCOC1` (stereo not given) yielded a pEC50 (Toll-like receptor 7 [1]) of 5.48.

For `CCCCc1nc2c(N)nc3ccccc3c2n1Cc1ccc(C(=O)NC)cc1`, the pEC50 (Toll-like receptor 7 [1]) was 6.65.

For `CCCCc1nc2c(N)nc3ccccc3c2n1CC1CCOC1` (stereo not given), the Activity (L929) was “Non-Toxic”, the Activity (L02) was “Non-Toxic” and the pKd (Toll-like receptor 7 [2]) was 7.33. The Activity [3] was “Non-Toxic”, the Activity [4] was “Non-Toxic” and the Activity [5] was “Non-Toxic”. The Activity [6] was “Non-Toxic”, the Activity [7] was “Non-Toxic” and the Activity [8] was “Non-Toxic”. The Activity [9] was “Non-Toxic”, the Activity [10] was “Non-Toxic” and the Activity [11] was “Non-Toxic”.

`CCCCCc1nc2c(N)nc3ccccc3c2n1CC1CCOC1` (stereo not given) showed a pEC50 (Toll-like receptor 7 [1]) of 6.28.

`CCCc1nc2c(N)nc3ccccc3c2n1Cc1ccc(C(=O)OC)cc1` gave a pEC50 (Toll-like receptor 7 [1]) of under 4.70.

`CCOCc1nc2c(N)nc3ccccc3c2n1CC(C)(C)O` [RESIQUIMOD] gave an Activity (Peritoneal macrophage [12]) of 65.8%, an Activity (Peritoneal macrophage [13]) of 29.8% and an Activity (B16-F10) of 49.9%.

`CCCCc1nc2c(N)nc3ccccc3c2n1Cc1ccc(OC)cc1` gave a pEC50 (Toll-like receptor 7 [1]) of under 4.70.

Reference: ChEMBL document CHEMBL5518200, “Heterocyclic-Modified Imidazoquinoline Derivatives: Selective TLR7 Agonist Regulates Tumor Microenvironment against Melanoma” (J Med Chem, 2024)
